# From patent publication US20060069132A1, “Azolecarboxamide herbicides” (priority 2004, published 2006)
# What was measured:
# rice [1] = test: Test B pre-/postemergence herbicide test; format: in vivo, Oryza sativa; conditions: preemergence, 125 g ai/ha; 0 to 100 scale, 0 is no effect, 100 is complete control
# Summary of the method: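 Seeds were planted and treated preemergence with compounds formulated in a non-phytotoxic solvent mixture containing surfactant, while plants at the 1- to 4-leaf stage (2 to 18 cm) received postemergence sprays. Flooded paddy plants were grown to the 2-leaf stage. After 13 to 15 days in a greenhouse, injury was visually rated 0–100 against untreated controls.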
# Surinam grass = test: Test C pre-/postemergence herbicide test; format: in vivo, Urochloa decumbens
# Summary of the method: (§1)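 Seeds were planted and sprayed preemergence with test chemicals in a non-phytotoxic solvent mixture containing surfactant; postemergence treatments went onto plants 2 to 18 cm tall (1- to 4-leaf stage). After 12 to 14 days in a greenhouse, injury was rated visually against untreated controls on a 0–100 scale.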
# large crabgrass = test: Test C pre-/postemergence herbicide test; format: in vivo, Digitaria sanguinalis; conditions: for Plant response rating, Crabgrass, Large: visual, 12 to 14 days
# Summary of the method: as §1
# goosegrass = test: Test C pre-/postemergence herbicide test; format: in vivo, Eleusine indica
# Summary of the method: as §1
# johnsongrass = test: Test C pre-/postemergence herbicide test; format: in vivo, Sorghum halepense
# Summary of the method: as §1
# kochia = test: Test C pre-/postemergence herbicide test; format: in vivo, Kochia scoparia
# Summary of the method: as §1
# pigweed = test: Test C pre-/postemergence herbicide test; format: in vivo, Amaranthus retroflexus
# Summary of the method: as §1
# soybean = test: Test C pre-/postemergence herbicide test; format: in vivo, Glycine max
# Summary of the method: as §1
# velvetleaf = test: Test C pre-/postemergence herbicide test; format: in vivo, Abutilon theophrasti
# Summary of the method: as §1
# rice [2] = test: Test C flooded paddy test; format: in vivo, Oryza sativa
# Summary of the method: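 Injury scored visually against controls on a 0 (no effect) to 100 (complete control) scale, 12 to 14 days after treatment in greenhouse. Flooded paddy plants treated at 2-leaf stage; postemergence plants at 1- to 4-leaf stage, 2 to 18 cm tall.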
# [3] = 125 g ai/ha, scale 0 (no effect) to 100 (complete control), visual, 12 to 14 days, preemergence
# [4] = Preemergence, 500 g ai/ha, scale 0 to 100, 0 no effect, 100 complete control
compound,measurement,setting,value
CCn1nc(C(C)(C)C)cc1C(=O)Nc1cccc2c1CCN(C1CC1)C2=O [Compound 64],"Plant response rating, Rice",rice [1],0
same,"Plant response rating (0 = no effect, 100 = complete control), Surinam Grass","Surinam grass; 62 g ai/ha, preemergence",0
same,"Plant response rating, Surinam Grass",Surinam grass; [3],5
same,Surinam Grass plant response rating,Surinam grass; [4],50
same,"Plant response rating (0 = no effect, 100 = complete control), Crabgrass, Large","large crabgrass; 62 g ai/ha, preemergence",0
same,"Plant response rating, Crabgrass, Large","large crabgrass; 125 g ai/ha, scale 0 (no effect) to 100 (complete control), preemergence",40
same,"Plant response rating, Crabgrass, Large","large crabgrass; 250 g ai/ha, scale 0 to 100 (0 no effect, 100 complete control), preemergence",70
same,"Crabgrass, Large plant response rating",large crabgrass; [4],90
same,"Plant response rating (0 = no effect, 100 = complete control), Goosegrass","goosegrass; 62 g ai/ha, preemergence",0
same,"Plant response rating, Goosegrass",goosegrass; [3],10
same,Goosegrass plant response rating,goosegrass; [4],70
same,"Plant response rating (0 = no effect, 100 = complete control), Johnsongrass","johnsongrass; 62 g ai/ha, preemergence",0
same,"Plant response rating, Johnsongrass",johnsongrass; [3],20
same,Johnsongrass plant response rating,johnsongrass; [4],60
same,"Plant response rating (0 = no effect, 100 = complete control), Kochia","kochia; 62 g ai/ha, preemergence",0
same,"Plant response rating, Kochia",kochia; [3],20
same,Kochia plant response rating,kochia; [4],60
same,"Plant response rating (0 = no effect, 100 = complete control), Pigweed","pigweed; 62 g ai/ha, preemergence",30
same,"Plant response rating, Pigweed",pigweed; [3],70
same,Pigweed plant response rating,pigweed; [4],100
same,"Plant response rating (0 = no effect, 100 = complete control), Soybean","soybean; 62 g ai/ha, preemergence",0
same,"Plant response rating, Soybean",soybean; [3],0
same,Soybean plant response rating,soybean; [4],60
same,"Plant response rating, Velvetleaf",velvetleaf; [3],30
same,Velvetleaf plant response rating,velvetleaf; [4],60
same,Rice plant response rating,"rice [2]; 62 g ai/ha, scale 0 to 100 (0 no effect, 100 complete control)",0
same,Rice plant response rating,"rice [2]; 125 g ai/ha, scale of 0 to 100, 0 is no effect, 100 is complete control",0
same,Rice plant response rating,"rice [2]; 250 g ai/ha, scale of 0 to 100, 0 is no effect, 100 is complete control",0
same,"Plant response rating, Rice","rice [2]; 500 g ai/ha, visual rating after 12 to 14 days, scale 0 to 100 (0 no effect, 100 complete control)",15
